We go through two compounds from article PMC8999638, “Identification of Entry Inhibitors against Delta and Omicron Variants of SARS-CoV-2” (International Journal of Molecular Sciences, 2022).

What all share (experiment): microbe, parasite or virus in culture
Format in all cases: cell-based, SARS-CoV-2

Assay [1] concerns pseudovirus carrying spike protein of the alpha variant. To be noted: read-out: EC50 (nM) (Alpha).
The test system of assay [2] is pseudovirus carrying spike protein of the delta variant. To be noted: read-out: EC50 (nM) (Delta).
The test system of assay [3] is pseudoviruses carrying spike proteins of different variants. To be noted: Severe acute respiratory syndrome coronavirus 2, read-out: EC50 values against different variants (span).
Assay [4] deals with pseudovirus carrying spike protein of the omicron variant. To be noted: read-out: EC50 (nM) (Omicron).
The subject of assay [5] is pseudovirus carrying spike protein of the beta variant. To be noted: read-out: EC50 (nM) (Beta).

Take `Cc1cc(C#N)cc(C)c1Oc1nc(Nc2ccc(C#N)cc2)nc(N)c1Br` [Etravirine]: the EC50 in assay [1] was 4.9 nM; in assay [2] it was 2.9 nM; in assay [3] it was 4.5 to 5.8 nM; in assay [4] it was 3 nM; in assay [5] it was 4.5 nM.
As for `C[C@@H]1CCO[C@H]2Cn3cc(C(=O)NCc4ccc(F)cc4F)c(=O)c(O)c3C(=O)N12` [Dolutegravir sodium], the EC50 in assay [1] was 15.8 nM; in assay [2], 3 nM; in assay [3], 10.2 to 22.9 nM; in assay [4] it was 2.6 nM; in assay [5], 10.2 nM.
